From patent US10441663B2, “Methods for treating cancer” (Bicycle Therapeutics Limited, priority 2016, dated 2019)
*1 amine or outer side, *2 acyl side, *3 side chain or, on linkers, in order; H or OH if unused. Where a SMILES comes first, the peptide text is derived from it. Bridges are numbered along the chain shown (N, C = ends). [ ]: non-standard residue; d: D form. The star is where a group is joined. X1 = COc1cc2cc(c1Cl)N(C)C(=O)C[C@H](OC(=O)[C@H](C)N(C)C(=O)CCSSC(C)CCC(=O)*)[C@]1(C)O[C@H]1[C@H](C)[C@@H]1C[C@@](O)(NC(=O)O1)[C@H](OC)/C=C/C=C(\C)C2; 1Nal = N[C@@H](Cc1cccc2ccccc12)C(=O)O; TBMB = c1c(C[*:1])cc(C[*:3])cc1C[*:2]; Tle = CC(C)(C)[C@H](N)C(=O)O; βAla = NCCC(=O)O; Sar = CNCC(=O)O

Columns and labels:
3LL syngeneic model = assay: In vivo efficacy of BT1718 alone or in combination with Anti-PD-1 antibody in 3LL syngeneic model (Example 10); design: species or system Mus Musculus
Method: The objective of the research was to evaluate the in vivo anti-tumor efficacy of BT1718 alone or in combination with Anti-PD-1 antibody in the treatment of the subcutaneous 3LL syngeneic model in C57BL/6 mice.
The 3LL tumor cells were maintained in vitro as a monolayer culture in medium supplemented with 10% heat inactivated fetal bovine serum at 37° C. in an atmosphere of 5% CO2 in air. The tumor cells were routinely subcultured twice weekly by trypsin-EDTA treatment. The cells growing in an exponential growth phase will be harvested and counted for tumor inoculation.
Each mouse was inoculated subcutaneously at the right flank with 3LL tumor cells (1×106) in 0.1 ml of PBS for tumor development. The animals were randomized and treatment was started when the average tumor volume reaches approximately 105 mm^3 for the efficacy study. The test article administration and the animal numbers in each group were shown in the experimental design table (Table 52).
All the procedures related to animal handling, care and the treatment in the study were performed according to the guidelines of the Association for Assessment and Accreditation of Laboratory Animal Care (AAALAC). At the time of routine monitoring, the animals were daily checked for any effects of tumor growth and treatments on normal behavior such as mobility, food and water consumption (by looking only), body weight gain/loss (body weights were measured every day), eye/hair matting and any other abnormal effect as stated in the protocol. Death and observed clinical signs were recorded on the basis of the numbers of animals within each subset.
The major endpoint was to see if the tumor growth could be delayed or mice could be cured. Tumor size was measured three times weekly in two dimensions using a caliper, and the volume was expressed in mm^3 using the formula: V=0.5 a×b2 where a and b are the long and short diameters of the tumor, respectively. The tumor size was then used for calculations of T/C value. The T/C value (in percent) is an indication of antitumor effectiveness; T and C are the mean volumes of the treated and control groups, respectively, on a given day.
TGI was calculated for each group using the formula: TGI (%)=[1−(Ti−T0)/(Vi−V0)]×100; Ti is the average tumor volume of a treatment group on a given day, T0 is the average tumor volume of the treatment group on the day of treatment start, Vi is the average tumor volume of the vehicle control group on the same day with Ti, and V0 is the average tumor volume of the vehicle group on the day of treatment start.
Summary statistics, including mean and the standard error of the mean (SEM), are provided for the tumor volume of each group at each time point.
Statistical analysis of difference in tumor volume among the groups was conducted on the data obtained at the best therapeutic time point after the final dose.
A one-way ANOVA was performed to compare tumor volume among groups, and when a significant F-statistics (a ratio of treatment variance to the error variance) was obtained, comparisons between groups were carried out with Games-Howell test. All data were analyzed using Prism. P<0.05 was considered to be statistically significant.

[1] = Preliminary metabolism studies; type: in vivo
From the text: Efficacy in this model was reduced in the conjugates containing the least cleavable linkers.

[2] = Vehicle, ip, biw + BT1718, 3 mpk, iv, biw, day 14
[3] = Vehicle, ip, biw + BT1718, 10 mpk, iv, biw, day 14

## COc1cc2cc(c1Cl)N(C)C(=O)C[C@H](OC(=O)[C@H](C)N(C)C(=O)CCSSC(C)CCC(=O)NCCC(=O)N(C)CC(=O)N(C)CC(=O)N(C)CC(=O)N(C)CC(=O)N(C)CC(=O)N(C)CC(=O)N(C)CC(=O)N(C)CC(=O)N(C)CC(=O)N(C)CC(=O)N[C@@H](C)C(=O)N[C@H]1CSCc3cc4cc(c3)CSC[C@H](NC(=O)[C@@H](C)NC(=O)[C@H](Cc3cccc5ccccc35)NC(=O)[C@H](CCC(=O)O)NC(=O)[C@H](CC(N)=O)NC(=O)[C@@H](C)NC1=O)C(=O)N[C@@H](CCC(=O)O)C(=O)N[C@@H](CC(=O)O)C(=O)N[C@@H](Cc1ccccc1)C(=O)N[C@@H](Cc1ccc(O)cc1)C(=O)N[C@@H](CC(=O)O)C(=O)N[C@@H](C(C)(C)C)C(=O)N[C@H](C(N)=O)CSC4)[C@]1(C)O[C@H]1[C@H](C)[C@@H]1C[C@@](O)(NC(=O)O1)[C@H](OC)/C=C/C=C(\C)C2 (stereo partly shown) [BT1718] ({X1-βAla}-[Sar][Sar][Sar][Sar][Sar][Sar][Sar][Sar][Sar][Sar]AC[dA]NE[1Nal][dA]CEDFYD[Tle]C-NH2; linker 12-18-25 via TBMB (inferred))
3LL syngeneic model; BT1718 3 mg/kg, day 14
  TGI: 72.9%
  Tumor Volume: 612 mm^3
3LL syngeneic model; BT1718 10 mg/kg, day 14
  TGI: 98.1%
  Tumor Volume: 132 mm^3
3LL syngeneic model; Vehicle, ip, biw + BT1718, 3 mpk, iv, biw, day 0
  tumor volume trace over time: 96 ± 7 mm^3
3LL syngeneic model; Vehicle, ip, biw + BT1718, 3 mpk, iv, biw, day 3
  tumor volume trace over time: 167 ± 29 mm^3
3LL syngeneic model; Vehicle, ip, biw + BT1718, 3 mpk, iv, biw, day 7
  tumor volume trace over time: 320 ± 71 mm^3
3LL syngeneic model; Vehicle, ip, biw + BT1718, 3 mpk, iv, biw, day 10
  tumor volume trace over time: 396 ± 79 mm^3
3LL syngeneic model; [2]
  T/C: 30.6%
  TGI: 72.9%
  tumor volume trace over time: 612 ± 133 mm^3
3LL syngeneic model; Vehicle, ip, biw + BT1718, 3 mpk, iv, biw, day 14, Mean ± SEM
  Tumor Volume: 612 ± 133 mm^3
3LL syngeneic model; Vehicle, ip, biw + BT1718, 3 mpk, iv, biw, day 17
  tumor volume trace over time: 968 ± 211 mm^3
3LL syngeneic model; Vehicle, ip, biw + BT1718, 3 mpk, iv, biw, day 21
  tumor volume trace over time: 1177 ± 196 mm^3
3LL syngeneic model; Vehicle, ip, biw + BT1718, 10 mpk, iv, biw, day 0
  tumor volume trace over time: 96 ± 6 mm^3
3LL syngeneic model; Vehicle, ip, biw + BT1718, 10 mpk, iv, biw, day 3
  tumor volume trace over time: 134 ± 17 mm^3
3LL syngeneic model; Vehicle, ip, biw + BT1718, 10 mpk, iv, biw, day 7
  tumor volume trace over time: 141 ± 18 mm^3
3LL syngeneic model; Vehicle, ip, biw + BT1718, 10 mpk, iv, biw, day 10
  tumor volume trace over time: 128 ± 16 mm^3
3LL syngeneic model; [3]
  T/C: 6.6%
  TGI: 98.1%
  tumor volume trace over time: 132 ± 26 mm^3
3LL syngeneic model; Vehicle, ip, biw + BT1718, 10 mpk, iv, biw, day 14, Mean ± SEM
  Tumor Volume: 132 ± 26 mm^3
3LL syngeneic model; Vehicle, ip, biw + BT1718, 10 mpk, iv, biw, day 17
  tumor volume trace over time: 129 ± 33 mm^3
3LL syngeneic model; Vehicle, ip, biw + BT1718, 10 mpk, iv, biw, day 21
  tumor volume trace over time: 104 ± 41 mm^3
[1]
  route of excretion: excreted mainly through the kidney in urine
